Values belong to the compound of their own block, whether it stands above or below them.
Assay: photoluminescence quantum yield (fraction); solvent given as SMILES

Compound: F[B-]1(F)n2c(c3cccc4cccc2c43)=Nc2cccc(Cl)[n+]21
photoluminescence quantum yield (in C1CCOC1): 0.99 | photoluminescence quantum yield (in CC#N): 0.99 | photoluminescence quantum yield (in CCCCCC): 0.99 | photoluminescence quantum yield (in Cc1ccccc1): 0.99 | photoluminescence quantum yield (in ClCCl): 0.99

Compound: Cc1cccc2c1nc1c(=O)n(C)c(=O)nc-1n2C
photoluminescence quantum yield (in CC#N): 0.14

Compound: CC(=O)OCCOCCN1C(=O)c2cc(NCCOCCO)c3c4c(cc(NCCOCCO)c(c24)C1=O)C(=O)N(CCOCCOC(C)=O)C3=O
photoluminescence quantum yield (in CO): 0.37 | photoluminescence quantum yield (in ClC(Cl)Cl): 0.59 | photoluminescence quantum yield (in O): 0.03

Compound: O=C1c2ccc(N(c3ccccc3)c3ccccc3)cc2C(=O)c2ccc(N(c3ccccc3)c3ccccc3)cc21
photoluminescence quantum yield (in Cc1ccccc1): 0.2 | photoluminescence quantum yield (in c1ccc2c(c1)c1ccccc1n2-c1ccc(-c2ccc(-n3c4ccccc4c4ccccc43)cc2)cc1): 0.5

Compound: COc1cc(/C=C/c2nc3ccccc3s2)c(OC)cc1/C=C/c1ccncc1
photoluminescence quantum yield (in C1CCOC1): 0.75 | photoluminescence quantum yield (in CC#N): 0.5 | photoluminescence quantum yield (in CN(C)C=O): 0.67 | photoluminescence quantum yield (in Cc1ccccc1): 0.86

Compound: COc1ccc(-c2nc(C(C)=O)c(C)o2)cc1
photoluminescence quantum yield (in CC#N): 0.056 | photoluminescence quantum yield (in CCO): 0.053 | photoluminescence quantum yield (in CCOC(C)=O): 0.134 | photoluminescence quantum yield (in CCOCC): 0.019 | photoluminescence quantum yield (in ClCCl): 0.051

Compound: C=Cc1ccc(-c2ccc(-c3nnc(-c4ccc(-c5nnc(-c6ccc(-c7ccc(C=C)cc7)s6)o5)cc4)o3)s2)cc1
photoluminescence quantum yield (in ClC(Cl)Cl): 0.62

Compound: CCN(CC)c1ccc(C(=C(c2ccccc2)c2ccc(B(c3c(C)cc(C)cc3C)c3c(C)cc(C)cc3C)cc2)c2ccc(N(CC)CC)cc2)cc1
photoluminescence quantum yield (in C1CCOC1): 0.19

Compound: CN(C)c1ccc(C2=Nc3scc(-c4ccc(C#N)cc4)[n+]3[B-](F)(F)O2)cc1
photoluminescence quantum yield (in C1CCOC1): 0.23 | photoluminescence quantum yield (in CC#N): 0.02 | photoluminescence quantum yield (in Cc1ccccc1): 0.62 | photoluminescence quantum yield (in ClCCl): 0.61

Compound: CC[N+]1(CC)CN2C(C)=CC(C)=C(C(=O)O)C2=N1
photoluminescence quantum yield (in CN(C)C=O): 0.056 | photoluminescence quantum yield (in O): 0.622

Compound: Cc1ccc2c(c1)c1cc(C)ccc1n2-c1c(-n2c3ccccc3c3ccccc32)cc(-c2nc(-c3ccccc3)nc(-c3ccccc3)n2)cc1-n1c2ccccc2c2ccccc21
photoluminescence quantum yield (in O=P(c1ccccc1)(c1ccccc1)c1ccccc1Oc1ccccc1P(=O)(c1ccccc1)c1ccccc1): 0.98

Compound: CC1(C)C(/C=C/C=C/C=C/C=C2/N(S(=O)(=O)[O-])c3ccc(S(=O)(=O)[O-])cc3C2(C)C)=[N+](S(=O)(=O)[O-])c2ccc(S(=O)(=O)[O-])cc21
photoluminescence quantum yield (in CO): 0.55 | photoluminescence quantum yield (in O): 0.29

Compound: COc1ccc2c3c(cccc13)C(=O)c1ccccc1-2
photoluminescence quantum yield (in CC#N): 0.62 | photoluminescence quantum yield (in CC(C)=O): 0.56 | photoluminescence quantum yield (in CC(C)O): 0.54 | photoluminescence quantum yield (in CCCCOCCCC): 0.01 | photoluminescence quantum yield (in CCOC(C)=O): 0.23 | photoluminescence quantum yield (in CCOCC): 0.05 | photoluminescence quantum yield (in CO): 0.45 | photoluminescence quantum yield (in Cc1ccccc1): 0.1 | photoluminescence quantum yield (in Clc1ccccc1): 0.41 | photoluminescence quantum yield (in N#Cc1ccccc1): 0.69 | photoluminescence quantum yield (in O=C1CCCCC1): 0.57

Compound: CC(C)(C)NC(=O)c1ccc(-c2ccc(N3c4ccccc4Oc4ccccc43)cc2)c2ccc3c4ccc(F)cc4c4cc(F)ccc4c3c12
photoluminescence quantum yield (in ClCCl): 0.03

Compound: Cc1ccc(-n2c(C)ccc2C)cc1
photoluminescence quantum yield (in CC#N): 0.013 | photoluminescence quantum yield (in CCCCCC): 0.006

Compound: CC(C)(C)[Si](C)(C)C#CC1=CC2=c3cc(C#C[Si](C)(C)C(C)(C)C)c4nc(C(F)(F)C(F)(F)C(F)(F)F)nc5c(C#C[Si](C)(C)C(C)(C)C)cc(c3c54)C3=CC(C#C[Si](C)(C)C(C)(C)C)=C4N=C(C(F)(F)C(F)(F)C(F)(F)F)N=C1C4C32 (stereo unspecified)
photoluminescence quantum yield (in C1CCOC1): 0.35

Compound: N#Cc1ccc(-c2ccc3c(c2)c2cc(-c4ccc(C#N)cc4)ccc2c2c3nc(-c3ccc(N(c4ccccc4)c4ccccc4)cc3)n2-c2ccccc2)cc1
photoluminescence quantum yield (in C1CCOC1): 0.42 | photoluminescence quantum yield (in CC#N): 0.23 | photoluminescence quantum yield (in CCCCCC): 0.9 | photoluminescence quantum yield (in CCOCC): 0.59

Compound: C=CCOc1ccc(-c2nc3cc(C(NC(=O)OC(C)(C)C)C(=O)OC)ccc3o2)cc1 (stereo unspecified)
photoluminescence quantum yield (in CC1CCCCC1): 0.84 | photoluminescence quantum yield (in CC#N): 0.56 | photoluminescence quantum yield (in CO): 0.79

Compound: C(#Cc1nc2ccccc2s1)c1ccc(N(c2ccc(C#Cc3nc4ccccc4s3)cc2)c2ccc(C#Cc3nc4ccccc4s3)cc2)cc1
photoluminescence quantum yield (in Cc1ccccc1): 0.8

Compound: CCCCCCCc1ccc(C2=[N+]3C(=C4c5cc(OCC(CC)CC)c(-c6ccc(CCCCCCC)o6)n5[B-](F)(F)[n+]5nnn(c54)[B-]3(F)F)C=C2OCC(CC)CC)o1
photoluminescence quantum yield (in C1CCOC1): 0.04 | photoluminescence quantum yield (in ClCCl): 0.02

Compound: C(=C\c1cnccn1)/c1ccc2nccnc2c1
photoluminescence quantum yield (in CCCCCC): 0.001 | photoluminescence quantum yield (in CCO): 0.09 | photoluminescence quantum yield (in CO): 0.12 | photoluminescence quantum yield (in ClCCl): 0.04 | photoluminescence quantum yield (in c1ccccc1): 0.02

Compound: [NH3+]C(Cc1ccc(O)c(O)c1)C(=O)[O-] (stereo unspecified)
photoluminescence quantum yield (in O): 0.075

Compound: COc1ccc(C(=O)c2c(C)c3ccc4cccc5c6cccc7ccc2c(c76)c3c45)cc1
photoluminescence quantum yield (in ClCCl): 0.018

Compound: CN(C)c1ccc(C=C/C=C/C=C/c2ccc(C#N)cc2)cc1
photoluminescence quantum yield (in C1CCOC1): 0.112 | photoluminescence quantum yield (in CC#N): 0.261 | photoluminescence quantum yield (in CCCC#N): 0.142 | photoluminescence quantum yield (in CCCCCC): 0.072 | photoluminescence quantum yield (in CCCCOCCCC): 0.081 | photoluminescence quantum yield (in CCO): 0.211 | photoluminescence quantum yield (in CCOCC): 0.092

Compound: COc1cc(/C=C/c2ccccc2)cc(OC)c1
photoluminescence quantum yield (in C1CCCCC1): 0.18 | photoluminescence quantum yield (in CC#N): 0.32 | photoluminescence quantum yield (in CC(C)O): 0.27 | photoluminescence quantum yield (in CCCCOCCCC): 0.26 | photoluminescence quantum yield (in CCOC(C)=O): 0.29 | photoluminescence quantum yield (in CCOCC): 0.27

Compound: O=C1NC(=O)c2ccc3c4ccc5c6c(ccc(c7ccc1c2c73)c64)C(=O)N(c1ccc(O)cc1)C5=O
photoluminescence quantum yield (in CN(C)C=O): 0.15

Compound: O=c1c2cc(F)c(O)cc2oc2cc(N3CCCCC3)c(F)cc12
photoluminescence quantum yield (in CCO): 0.23

Compound: N#C/C=C/c1ccc2ccc3cccc4ccc1c2c34
photoluminescence quantum yield (in C1CCOC1): 0.72 | photoluminescence quantum yield (in C1COCCO1): 0.63 | photoluminescence quantum yield (in CC#N): 0.32 | photoluminescence quantum yield (in CC(C)=O): 0.62 | photoluminescence quantum yield (in CCCCCC): 0.53 | photoluminescence quantum yield (in CCOC(C)=O): 0.62 | photoluminescence quantum yield (in CO): 0.44 | photoluminescence quantum yield (in Cc1ccccc1): 0.55

Compound: Cc1cc(C#Cc2ccccc2)c2ccc3c(C#Cc4ccccc4)cc(C#Cc4ccccc4)c4ccc1c2c43
photoluminescence quantum yield (in CS(C)=O): 0.72 | photoluminescence quantum yield (in ClC(Cl)(Cl)Cl): 0.56

Compound: N#Cc1ccc(-n2cccc2)cc1
photoluminescence quantum yield (in C1CCOC1): 0.024 | photoluminescence quantum yield (in CC#N): 0.024 | photoluminescence quantum yield (in CCCCCC): 0.077 | photoluminescence quantum yield (in CCOCC): 0.023 | photoluminescence quantum yield (in ClCCl): 0.022

Compound: COc1cccc(-c2nc3c([nH]2)C2=CC(=O)S[C@]2(C)[C@@]2(C)SC(=O)C=C32)c1OC
photoluminescence quantum yield (in CC#N): 0.12

The remaining lines, values ahead:

photoluminescence quantum yield (in CC#N): 0.029
Compound: C[n+]1ccn(CCCCc2ccc3c(c2)c2ccccc2n3-c2cc(C#N)c(C#N)cc2F)c1

photoluminescence quantum yield (in ClC(Cl)Cl): 0.06
Compound: CC1=CC(C)=[N+]2C1=C(c1ccc(I)cc1)c1c(C)cc(C)n1[B-]2(Oc1ccccc1)Oc1ccccc1

photoluminescence quantum yield (in C1COCCO1): 0.22
Compound: CCC12C(=C3C(=C4c5ccccc5S(=O)(=O)C41CC)C(F)(F)C(F)(F)C3(F)F)c1ccccc1S2(=O)=O (stereo unspecified)

photoluminescence quantum yield (in ClC(Cl)Cl): 0.152
Compound: CCOC(=O)C1(O)c2cc3ccc4cccc5ccc(c2C(=O)N1C(C)(C)C)c3c45 (stereo unspecified)

photoluminescence quantum yield (in CC#N): 0.558 | photoluminescence quantum yield (in CCO): 0.048 | photoluminescence quantum yield (in CN(C)C=O): 0.041 | photoluminescence quantum yield (in CS(C)=O): 0 | photoluminescence quantum yield (in ClCCl): 0.28
Compound: c1ccc(-c2csc(-c3ccncc3)n2)cc1

photoluminescence quantum yield (in C1COCCO1): 0.188
Compound: COc1ccc(C2=C/C(=C\c3ccc(C#N)cc3)C(=O)N2)cc1OC

photoluminescence quantum yield (in ClCCCl): 0.016
Compound: N#Cc1ccc2nc3c(=O)[nH]c(=O)[nH]c3nc2c1

photoluminescence quantum yield (in ClCCl): 0.25
Compound: O=P1(c2ccccc2)c2cccc3c4ccccc4c4ccc1n4c23 (stereo unspecified)

photoluminescence quantum yield (in CC#N): 0.65 | photoluminescence quantum yield (in ClCCl): 0.85
Compound: Cn1c(=O)cc(C(=O)c2ccccc2)c2sc(-c3ccc(OC(F)(F)F)cc3)cc21

photoluminescence quantum yield (in CCO): 0.6
Compound: c1ccc2cc3cnccc3cc2c1

photoluminescence quantum yield (in CC1CCCO1): 0.35
Compound: O=c1cc2cc(O)c3cccc4ccc(o1)c2c43

photoluminescence quantum yield (in C1COCCO1): 0.73 | photoluminescence quantum yield (in CC#N): 0.65 | photoluminescence quantum yield (in CO): 0.14 | photoluminescence quantum yield (in ClCCl): 0.81
Compound: N#Cc1nc2c(OCc3ccccc3)nc(N)nc2n1Cc1ccccc1

photoluminescence quantum yield (in CCO): 0.0089 | photoluminescence quantum yield (in ClCCl): 0.0121 | photoluminescence quantum yield (in O): 0.01
Compound: N#CC(C#N)=Cc1ccc(-c2ccc(-c3nc4ccccc4s3)c(O)c2)o1

photoluminescence quantum yield (in ClC(Cl)Cl): 0.47
Compound: F[B-]1(F)n2c(cc(Br)c2Br)C(c2ccccc2)=C2C=C(Br)C(c3ccc[nH]3)=[N+]21

photoluminescence quantum yield (in ClCCl): 0.23
Compound: COc1ccc(N2c3sc4ccccc4c3Sc3c2sc2ccccc32)cc1

photoluminescence quantum yield (in CS(C)=O): 0.014
Compound: O=C1CCCC2=C1C(c1ccc([N+](=O)[O-])cc1)c1c(c3ccccc3oc1=O)N2 (stereo unspecified)

photoluminescence quantum yield (in C1CCCCC1): 0.042 | photoluminescence quantum yield (in CC#N): 0.065 | photoluminescence quantum yield (in CCO): 0.064 | photoluminescence quantum yield (in c1ccccc1): 0.065
Compound: CNc1cccc2c1C(=O)c1ccccc1-2

photoluminescence quantum yield (in C1CCCCC1): 0.29 | photoluminescence quantum yield (in C1CCOC1): 0.47 | photoluminescence quantum yield (in CC#N): 0.31
Compound: Cc1ccc2nc3c(nc2c1)c(-c1ccccc1)nn3C

photoluminescence quantum yield (in CS(C)=O): 0.66
Compound: CCCCCCCCn1c2ccccc2c(=O)c2ccccc21

photoluminescence quantum yield (in CO): 0.77
Compound: O=C(O)CCCOc1cc2ccc3cccc4ccc(c1)c2c34

photoluminescence quantum yield (in C1CCOC1): 0.55 | photoluminescence quantum yield (in C1COCCO1): 0.46 | photoluminescence quantum yield (in CC#N): 0.53 | photoluminescence quantum yield (in CCO): 0.54 | photoluminescence quantum yield (in ClCCl): 0.55
Compound: C(=C\c1ccc(N(c2ccccc2)c2ccccc2)cc1)/c1ccc(-c2cc(-c3ccccn3)nc(-c3ccccn3)c2)cc1

photoluminescence quantum yield (in ClCCl): 0.21
Compound: COc1ccc(-c2cc(-c3ccccc3)nn2C)cc1

photoluminescence quantum yield (in ClCCl): 0.00114
Compound: CCOC(=O)C1=C(C(=O)OCC)C2(c3ccccc3-c3ccccc32)[C@@H](c2ccc(Cl)cc2)C=C2c3cc(OC)c(OC)cc3CCN21

— the Deep4Chem optical property database
